Reference: patent publication US8557823B2, “Family of PFKFB3 inhibitors with anti-neoplastic activities” (Advanced Cancer Therapeutics, LLC, priority 2007, dated 2013)
Values after ≈ are worked out from the molar mass of the structure shown. Where a name gives a salt, the structure may show the parent alone. Read-outs that look alike come from different tables or passages of the source. Values belong to the compound of their own block, whether it stands above or below them.

Experiments:
Jurkat = assay: Cancer cell proliferation, Alamar Blue assay 72 hours, Jurkat; type: cell-based
Method: (§1) The ability of the compounds described herein to kill or inhibit the proliferation of cancer cells was measured using either the MTT assay, the Alamar Blue assay, or the Cell Titer Glow® assay using 48 or 72 hours exposure. […] The procedures are briefly described below. Cells of the desired tumor cell line were plated at 2×10^5 cells/ml in 96 well plates. Twice the indicated concentrations of the compounds of the invention were added to cells the following day in an equal volume of media. 72 hours later, cells were lysed and subjected to ATP determination using the CellTiter Glo-Luminescent Cell Viability Assay kit (Promega, Madison, Wis.). Experiments were done in triplicate. When using the MTT assay or the Alamar blue assay, the experimental conditions are essentially similar; at the end of the incubation period, 20 microl of the MTT solution is added per well and the samples are incubated for an additional four hours, rinsed and the absorbance at 570 nm measured. Results for the inhibition of cells proliferation are reported as IC50 as commonly done (the concentration leading to a 50% inhibition of proliferation of the cell population) and are listed in the Tables below. Table 4 lists the IC50 for the compounds of the invention in several cell lines including Jurkat, Calu-6, NCI-H82, U937, or NCI-H1437 cancer cell lines. Table 5 lists the IC50 of PFK-070 in a panel of 10 cell lines.

U937 = assay: Cancer cell proliferation, Alamar Blue assay 72 hours, U937; type: cell-based; details: Homo sapiens, U-937
Method: as §1

Calu-6 = assay: Cancer cell proliferation, Alamar Blue assay 72 hours, Calu-6; type: cell-based; details: Homo sapiens
Method: as §1

NCI-H82 = assay: Cancer cell proliferation, Alamar Blue assay 72 hours, NCI-H82; type: cell-based; details: Homo sapiens
Method: as §1

NCI-H1437 = assay: Cancer cell proliferation, Alamar Blue assay 72 hours, NCI-H1437; type: cell-based; details: Homo sapiens
Method: as §1

[1] = target: T1, PFKFB3, the recombinant protein (Homo sapiens, UniProt Q16875); assay: Inhibition of recombinant PFKFB3 (Adapta Kinase assay); type: biochemical; details: read-out: IC50 EArec
T1 construct: made in house; host or cells: E. coli
Method: PFKFB3 was prepared by expression in E. coli and purified by GST column and column chromatography. […] The recombinant protein was pure and active as determined by the results of a kinase activity assay commercially available (Adapta® Kinase assay).

[2] = Microsomal stability in human liver microsomes; type: in vitro ADME; details: 0 min
Method: Microsomal stability in vitro in different biologic media (liver microsomes, S9 fraction, hepatocytes) and species is ascertained to evaluate the rate at which a compound undergoes metabolism in the experimental in vitro conditions. […] Experimental conditions are briefly described here: the stability in human liver microsomes of several compounds was done over […] at 37° C. using pooled mixed gender human liver microsomes. These liver microsomes were prepared at 1.0 mg/ml of microsomal protein in a 100 mM potassium phosphate pH 7.4 buffer with 1 mM NADPH. The media was incubated at 37° C. with the compound in solution in DMSO. The concentration of the compound was followed by LC/MS-MS as a function of time. […] Testosterone was used as a positive control. The same experiment was performed with mouse, rat or dog liver microsomes instead of human liver microsomes.

[3] = Solubility in dosing solution Cre:EtOH:Saline; type: physicochemical; details: Cremophor:EtOH:Saline 5:5:90, aqueous with cosolvent or surfactant or cyclodextrin, kinetic from dmso stock; 5:5:90 Cremophor:EtOH:Saline, after 24 hours at room temperature
Text: (§2) Chemical properties of the compounds of the invention were investigated, mainly the solubility in several solvents and pharmaceutically accepted excipients or dosing solutions and the stability of these solutions. […] The increase in solubility when comparing the effect of chemical substituents is unpredictable and surprising if one compares the solubility values of PFK-070 to PFK-091 and PFK-070 to PFK-141 and 145 in a dosing solution that could be used to treat cancer patients (See Table 8A below). Briefly, selected compounds of the invention are dissolved in a small volume of the solvents/excipients of interest (Cremophor, or Cremophor:etoh or Tween80:etoh) at room temperature and diluted 1:9 in saline and left at room temperature for over 8 or 24 hours. Both the physical (absence of a precipitate) and the chemical stability (less than 5% degradation) of the solutions are measured (observation and HPLC after filtration).

[4] = Solution stability in clear and amber vials; type: physicochemical; details: Cre:EtOH:Saline
Text: as §2
Furthermore, the solution stability of the compounds was investigated and it was discovered that, in normal conditions, they lack the appropriate solution stability as they undergo a rapid photoisomerization; this lack of solution stability is such that methods to prevent these compounds from reacting in solutions are necessary if these compounds are to be used as chemotherapeutic agents for the treatment of cancer patients.

[5] = Solubility profile in aqueous media; type: physicochemical; details: 23 °C, aqueous buffer

T1 sequence (Q16875 whole entry): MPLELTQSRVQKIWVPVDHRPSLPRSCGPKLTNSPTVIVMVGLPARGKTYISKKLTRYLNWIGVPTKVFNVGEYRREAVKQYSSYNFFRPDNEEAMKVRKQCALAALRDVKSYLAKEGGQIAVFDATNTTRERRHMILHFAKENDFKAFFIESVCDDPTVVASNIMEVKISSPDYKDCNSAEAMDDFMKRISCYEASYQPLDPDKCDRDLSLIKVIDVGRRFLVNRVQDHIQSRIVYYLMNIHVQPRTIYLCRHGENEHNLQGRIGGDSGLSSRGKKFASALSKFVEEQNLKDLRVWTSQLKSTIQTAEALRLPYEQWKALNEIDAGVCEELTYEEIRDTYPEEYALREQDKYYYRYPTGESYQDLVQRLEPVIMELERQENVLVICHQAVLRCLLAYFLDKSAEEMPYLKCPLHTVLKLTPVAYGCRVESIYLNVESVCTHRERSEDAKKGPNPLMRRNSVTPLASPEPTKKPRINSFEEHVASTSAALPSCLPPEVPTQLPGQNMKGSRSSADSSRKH

IC50 (Jurkat; Homo sapiens, Jurkat, 72 h): 1000 nM
SMILES: O=C(/C=C/c1ccnc2ccccc12)c1ccncc1 [ACT-PFK-013, 1-Pyridin-4-yl-3-quinolin-4-yl-propenone]

IC50 (Jurkat): 4000 nM
SMILES: O=C(/C=C/c1cnc2ccccc2c1)c1ccncc1 [ACT-PFK-014, 1-Pyridin-4-yl-3-quinolin-3-yl-propenone]

IC50 (Jurkat; Homo sapiens, Jurkat, 72 h): 1000 nM
SMILES: O=C(/C=C/c1cccc2ncccc12)c1ccncc1 [ACT-PFK-038, 1-Pyridin-4-yl-3-quinolin-5-yl-propenone]

IC50 (Jurkat): > 100000 nM
SMILES: O=C(/C=C/c1cnc2ccccc2c1)c1ccncc1 [ACT-PFK-055, 1-Pyridin-4-yl-3-quinolin-3-yl-propenone]

IC50 (Jurkat; Homo sapiens, Jurkat, 72 h): 2400 nM
IC50 (U937): 1300 nM
IC50 (Calu-6): 3.8 µM
SMILES: O=C(/C=C/c1cc(O)c2ccccc2n1)c1ccncc1 [ACT-PFK-066, 3-(4-Hydroxy-quinolin-2-yl)-1-pyridin-4-yl-propenone]

IC50 (Jurkat; Homo sapiens, Jurkat, 72 h): 600 nM
IC50 (U937): 200 nM
IC50 (Calu-6): 0.8 µM
SMILES: Cc1ccc(C(=O)/C=C/c2cc(O)c3ccccc3n2)cc1 [ACT-PFK-073, 3-(4-Hydroxy-quinolin-2-yl)-1-p-tolyl-propenone]

IC50 (Jurkat; Homo sapiens, Jurkat, 72 h): 900 nM
IC50 (NCI-H82): 1100 nM
IC50 (NCI-H1437): 5.4 µM
IC50 [1]: 210 ± 51 nM
Mean metabolized (%) [2]: 0%
solubility at 24 h [3]: 800 µg/mL (≈ 2920 µM)
SMILES: Cc1cccc2ccc(/C=C/C(=O)c3ccncc3)nc12 [ACT-PFK-141, 3-(8-Methyl-quinolin-2-yl)-1-pyridin-4-yl-propenone]

IC50 (Jurkat; Homo sapiens, Jurkat, 72 h): 1700 nM
IC50 (NCI-H82): 2600 nM
IC50 (NCI-H1437): 4.3 µM
IC50 [1]: 654 ± 95 nM
SMILES: O=C(/C=C/c1ccc2ccccc2n1)c1ccnc(F)c1 [ACT-PFK-143, 1-(2-Fluoro-pyridin-4-yl)-3-quinolin-2-yl-propenone]

IC50 (Jurkat; Homo sapiens, Jurkat, 72 h): 900 nM
IC50 (NCI-H82): 1500 nM
IC50 (NCI-H1437): 4.7 µM
IC50 [1]: 294 ± 38 nM
Mean metabolized (%) [2]: 0%
solubility at 24 h [3]: 100 µg/mL (≈ 359 µM)
SMILES: O=C(/C=C/c1ccc2cccc(F)c2n1)c1ccncc1 [ACT-PFK-145, 3-(8-Fluoro-quinolin-2-yl)-1-pyridin-4-yl-propenone]

IC50 [1]: 811 ± 266 nM
solubility at 24 h [3]: 300 µg/mL (≈ 1090 µM)
SMILES: O=C(/C=C/c1ccc2cc(O)ccc2n1)c1ccncc1 [ACT-PFK-149, 3-(6-Hydroxy-quinolin-2-yl)-1-pyridin-4-yl-propenone]

IC50 [1]: 622 ± 39 nM
Mean metabolized (%) [2]: 0%
SMILES: Cc1ccc2ccc(/C=C/C(=O)c3ccncc3)nc2c1 [ACT-PFK-154, 3-(7-Methyl-quinolin-2-yl)-1-pyridin-4-yl-propenone]

Solubility stability, Amber Vials ([4]; 0 hrs): 1.0 mg/mL
Solubility stability, Amber Vials ([4]; 2 hrs): No change
appearance of solution, Clear Vials ([4]; 2 hrs): Change in color
Solubility stability, Amber Vials ([4]; 4 hrs): No change
appearance of solution, Clear Vials ([4]; 4 hrs): Change in color
Solubility stability, Amber Vials ([4]; 8 hrs): No change
appearance of solution, Clear Vials ([4]; 8 hrs): Change in color
solubility at 0 h ([4]; Cremophor:EtOH:Saline solution, aqueous with cosolvent or surfactant or cyclodextrin, kinetic from dmso stock, 0 hrs): 1000 µg/mL
solubility at 2 h ([4]; Cremophor:EtOH:Saline solution, aqueous with cosolvent or surfactant or cyclodextrin, kinetic from dmso stock, 2 hrs): 900 µg/mL
solubility at 4 h ([4]; Cremophor:EtOH:Saline solution, aqueous with cosolvent or surfactant or cyclodextrin, kinetic from dmso stock, 4 hrs): 800 µg/mL
solubility at 8 h ([4]; Cremophor:EtOH:Saline solution, aqueous with cosolvent or surfactant or cyclodextrin, kinetic from dmso stock, 8 hrs): < 700 µg/mL
SMILES: O=C(/C=C/c1ccc2cccc(O)c2n1)c1ccncc1 [PFK-070, HCl, 3-(8-Hydroxy-quinolin-2-yl)-1-pyridin-4-yl-propenone]

solubility ([5]; pH = 5): 1700 µg/mL
solubility ([5]; pH = 7): 1900 µg/mL
SMILES: Cc1cccc2ccc(/C=C/C(=O)c3ccncc3)nc12 [PFK-141, HCl, 3-(8-Methyl-quinolin-2-yl)-1-pyridin-4-yl-propenone]

solubility ([5]; pH = 5): 2400 µg/mL
solubility ([5]; pH = 7): 3400 µg/mL
SMILES: Cc1ccc2ccc(/C=C/C(=O)c3ccncc3)nc2c1 [PFK-154, HCl, 3-(7-Methyl-quinolin-2-yl)-1-pyridin-4-yl-propenone]

The next lines start with the compound.

SMILES: O=C(/C=C/c1ccc2ccccc2n1)c1cccnc1 [ACT-PFK-035, 1-Pyridin-3-yl-3-quinolin-2-yl-propenone]
IC50 (Jurkat; Homo sapiens, Jurkat, 72 h): 2500 nM

SMILES: O=C(/C=C/c1ccnc2ccccc12)c1cccnc1 [ACT-PFK-036, 1-Pyridin-3-yl-3-quinolin-4-yl-propenone]
IC50 (Jurkat; Homo sapiens, Jurkat, 72 h): 2500 nM

SMILES: O=C(/C=C/c1ccc2cccnc2c1)c1cccnc1 [ACT-PFK-037, 1-Pyridin-3-yl-3-quinolin-7-yl-propenone]
IC50 (Jurkat; Homo sapiens, Jurkat, 72 h): 2500 nM

SMILES: O=C(/C=C/c1cccc2ncccc12)c1cccnc1 [ACT-PFK-039, 1-Pyridin-3-yl-3-quinolin-5-yl-propenone]
IC50 (Jurkat; Homo sapiens, Jurkat, 72 h): 1000 nM

SMILES: O=C(/C=C/c1cccc2cccnc12)c1ccncc1 [ACT-PFK-047, 1-Pyridin-4-yl-3-quinolin-8-yl-propenone]
IC50 (Jurkat; Homo sapiens, Jurkat, 72 h): 14000 nM

SMILES: O=C(/C=C/c1cnc2ccccc2c1)c1cccnc1 [ACT-PFK-048, 1-Pyridin-3-yl-3-quinolin-3-yl-propenone]
IC50 (Jurkat; Homo sapiens, Jurkat, 72 h): 17000 nM

SMILES: O=C(/C=C/c1ccc2cccc(O)c2n1)c1cccnc1 [ACT-PFK-067, 3-(8-Hydroxy-quinolin-2-yl)-1-pyridin-3-yl-propenone]
IC50 (Jurkat; Homo sapiens, Jurkat, 72 h): 3100 nM
IC50 (U937): 830 nM
IC50 (Calu-6): 2.4 µM

SMILES: Cc1ccc(C(=O)/C=C/c2ccc3ccccc3n2)cc1 [ACT-PFK-068, 3-Quinolin-2-yl-1-p-tolyl-propenone]
IC50 (Jurkat; Homo sapiens, Jurkat, 72 h): 5500 nM
IC50 (U937): 1600 nM
IC50 (Calu-6): 4.8 µM

SMILES: Cc1ccc(C(=O)/C=C/c2ccc3cccc(O)c3n2)cc1 [ACT-PFK-071, 3-(8-Hydroxy-quinolin-2-yl)-1-p-tolyl-propenone]
IC50 (Jurkat; Homo sapiens, Jurkat, 72 h): 4800 nM
IC50 (U937): 1900 nM
IC50 (Calu-6): 5 µM

SMILES: O=C(/C=C/c1ccc2ccccc2n1)c1ccccc1O [ACT-PFK-086, 1-(2-Hydroxy-phenyl)-3-quinolin-2-yl-propenone]
IC50 (Jurkat; Homo sapiens, Jurkat, 72 h): 80500 nM
IC50 (U937): 19300 nM
IC50 (NCI-H82): 22500 nM
IC50 (Calu-6): > 100 µM

SMILES: O=C(/C=C/c1ccc2ccccc2n1)c1ccc(O)cc1 [ACT-PFK-087, 1-(4-Hydroxy-phenyl)-3-quinolin-2-yl-propenone]
IC50 (Jurkat; Homo sapiens, Jurkat, 72 h): 3700 nM
IC50 (U937): 1300 nM
IC50 (NCI-H82): 2300 nM
IC50 (Calu-6): 1.6 µM

SMILES: Nc1ccccc1C(=O)/C=C/c1ccc2ccccc2n1 [ACT-PFK-088, 1-(2-Amino-phenyl)-3-quinolin-2-yl-propenone]
IC50 (Jurkat; Homo sapiens, Jurkat, 72 h): > 100000 nM
IC50 (U937): 17200 nM
IC50 (NCI-H82): 38500 nM
IC50 (Calu-6): > 100 µM

SMILES: Nc1ccc(C(=O)/C=C/c2ccc3ccccc3n2)cc1 [ACT-PFK-089, 1-(4-Amino-phenyl)-3-quinolin-2-yl-propenone]
IC50 (Jurkat; Homo sapiens, Jurkat, 72 h): 4200 nM
IC50 (U937): 1600 nM
IC50 (NCI-H82): 900 nM
IC50 (Calu-6): 2.1 µM

SMILES: CNc1cccc2ccc(/C=C/C(=O)c3ccncc3)nc12 [ACT-PFK-151, 3-(8-Methylamino-quinolin-2-yl)-1-pyridin-4-yl-propenone]
IC50 [1]: 289 ± 56 nM
Mean metabolized (%) [2]: 0%
solubility at 24 h [3]: 1900 µg/mL (≈ 6570 µM)
